Data: patent publication US8394786B2, “Quinazoline derivatives” (Janssen Pharmaceutica N.V., priority 2003, dated 2013)
pIC50: −log10 of the molar value.

What was measured:
[1] = biological target: T1, EGFR (Homo sapiens, UniProt P00533); assay: In vitro inhibition of EGFR, Flash Plate or glass-fiber filter technology (C2); format: biochemical; design: 0.5 μg EGFR-kinase domain/well; settings: EGFR-kinase domain, 5.0 μM unlabeled ATP, read-out: Kinase activity.(C2): pIC50 (converted)
Method in brief: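 EGFR kinase domain (0.5 μg/well) phosphorylated poly(GT) with 5.0 μM ATP plus AT^33P, dose response 1·10^−6 to 1·10^−10 M. Flash Plate: biotin-poly(GT), Tris pH 8.0, 30° C, 60 min, scintillation counting. Filter: Tris pH 7.5 with MnCl2, 25° C, 10 min, 33P counted on glass-fiber filter by phosphorimaging.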
Target sequence in this assay (P00533 712-979 limits assumed): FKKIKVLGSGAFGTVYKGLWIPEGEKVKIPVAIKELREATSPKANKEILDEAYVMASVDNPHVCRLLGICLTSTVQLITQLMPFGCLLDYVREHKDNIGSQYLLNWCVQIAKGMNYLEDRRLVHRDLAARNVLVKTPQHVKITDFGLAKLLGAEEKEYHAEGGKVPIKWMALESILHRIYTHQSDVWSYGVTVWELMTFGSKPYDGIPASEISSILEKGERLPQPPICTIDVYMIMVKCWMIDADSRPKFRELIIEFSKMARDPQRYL

[2] = system: SKOV3 cells; assay: Serum starved proliferation assay on the ovarian carcinoma SKOV3 cells (C3); format: cell-based; settings: Homo sapiens, SK-OV-3, 72 h, EGF stimulated (100 ng/ml, 72 hours, serum free) or 72 hours with compounds; MTT cell viability assay; read-out: SKOV3 cell (C3): pIC50 (converted)
Method in brief: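 SKOV3 cells grown 24 h in 10% FCS, then treated with compound under serum-free conditions (37 °C, 5% CO2) and stimulated 72 h with EGF at 100 ng/ml final; read-out by MTT viability. Alternative format: compound for 72 h after the same 24 h FCS step, also by MTT.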

[3] = biological target: T1, EGFR; assay: ELISA assay of EGFR tyrosine kinase activity (C4); format: biochemical; settings: poly(Glu, Tyr) coated plate, 5 μM ATP, room temperature 10 min
Protocol: The EGFR ELISA is generally described by Yang, E. B. et al., 2001, Biochimica et Biophysica Acta, 1550; 144.
For the determination of EGFR tyrosine kinase activity, 100 μl of 0.4 μg/ml poly(Glu, Tyr) in PBS was coated per well on a 96-well microplate at 37° C. overnight. […] After washing three times with PBS the plates were either used immediately or stored at 4° C. Prior to the determination of the EGFR tyrosine kinase activity, the coated plates were washed two times with PBS. Next, to each well 88 μl of an ATP dilution (50 mM Tris HCl pH 8.0, 10 mM MgCl2, 100 μM Na3VO4, 1 mM DTT, 5 μM ATP) and 2 μl with various concentrations of the compounds to be tested, were added. The EGFR tyrosine kinase-catalysed reaction was started by the addition of 10 μl of diluted EGFR (dilution→0.05 μg per well enzyme diluted in 50 mM TrisHCl pH 8.0+0.1% BSA). After incubation at room temperature for 10 min, the reaction was stopped by washing five times with PBS with 0.1% Tween 20. Subsequently […] of recombinant anti-phosphotyrosine horseradish peroxidase conjugate (1:2500) in BSA (10 mg/ml in PBS) was added. After incubation at room temperature for 1 h, the microplate was washed five times with PBS/Tween 20. After the microplate was incubated with 100 μl of TMB-ELISA (1-step Ultra TMB-ELISA, Pierce) until colour development, 100 μl of 0.5 M H2SO4 was added to stop the reaction, and it was read in a microplate reader at 450-655 nm.
Target sequence in this assay (P00533 25-1210): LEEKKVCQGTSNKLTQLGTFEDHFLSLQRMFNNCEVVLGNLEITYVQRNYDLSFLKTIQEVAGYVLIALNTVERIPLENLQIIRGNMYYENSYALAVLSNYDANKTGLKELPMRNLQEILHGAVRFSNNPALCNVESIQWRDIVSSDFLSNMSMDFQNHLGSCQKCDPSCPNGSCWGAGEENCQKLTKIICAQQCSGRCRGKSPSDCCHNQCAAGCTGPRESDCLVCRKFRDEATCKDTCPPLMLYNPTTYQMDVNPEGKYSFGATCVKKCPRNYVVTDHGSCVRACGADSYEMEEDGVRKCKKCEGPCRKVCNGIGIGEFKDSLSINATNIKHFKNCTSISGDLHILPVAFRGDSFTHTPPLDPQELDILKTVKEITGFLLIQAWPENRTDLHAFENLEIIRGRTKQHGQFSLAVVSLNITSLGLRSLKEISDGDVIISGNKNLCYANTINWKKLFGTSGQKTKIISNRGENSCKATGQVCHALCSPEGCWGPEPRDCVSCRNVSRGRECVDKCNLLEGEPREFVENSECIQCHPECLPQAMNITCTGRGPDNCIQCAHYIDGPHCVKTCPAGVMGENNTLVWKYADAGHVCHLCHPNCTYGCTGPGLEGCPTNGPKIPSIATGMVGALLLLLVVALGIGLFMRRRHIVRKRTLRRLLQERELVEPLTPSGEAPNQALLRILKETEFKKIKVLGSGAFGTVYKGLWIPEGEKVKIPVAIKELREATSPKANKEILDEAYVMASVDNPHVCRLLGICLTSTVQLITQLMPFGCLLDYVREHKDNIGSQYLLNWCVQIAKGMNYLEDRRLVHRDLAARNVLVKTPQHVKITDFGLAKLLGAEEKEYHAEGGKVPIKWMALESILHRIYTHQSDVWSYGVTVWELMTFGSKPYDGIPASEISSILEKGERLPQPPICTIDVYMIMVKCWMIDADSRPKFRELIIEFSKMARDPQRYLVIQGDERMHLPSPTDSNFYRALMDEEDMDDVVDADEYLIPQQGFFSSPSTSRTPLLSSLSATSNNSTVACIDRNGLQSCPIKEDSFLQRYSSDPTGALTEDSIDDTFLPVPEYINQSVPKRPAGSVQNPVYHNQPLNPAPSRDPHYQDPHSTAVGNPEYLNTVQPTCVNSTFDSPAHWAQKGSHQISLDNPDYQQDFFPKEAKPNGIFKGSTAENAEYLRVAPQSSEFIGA

[4] = system: A431 cells; assay: Proliferation assay on the squamous carcinoma cell line A431 cells (C5); format: cell-based; settings: Homo sapiens, A-431; 72 hours with compounds; MTT cell viability assay; read-out: A431 cell (C5): pIC50 (converted)
Protocol: The squamous carcinoma cell line (A431) was used in a cell proliferation assay, to assess the inhibitory effect of the compounds in whole cells.
In a first step the A431 cells were incubated for 24 hours in the presence of 10% FCS serum. In the second step the cells were incubated for 72 hours with the compounds to be tested at a final concentration of 100 ng/ml. The effect of the compounds on the cell proliferation was finally assessed in a standard MTT cell viability assay.

Compound `COC(=O)c1ccc2c(c1)Nc1ncnc3cc(OC)c(cc13)OCCCCCCO2` [Compound 10, 4,6-ethanediylidene-19H-pyrimido[4,5-b][6,13,1]benzodioxaazacyclo-pentadecine-17-carboxylic acid, 8,9,10,11,12,13-hexahydro-20-methoxy-, methyl ester] has an IC50 [1] of 0.0501 µM, an IC50 [2] greater than 10 µM and a pIC50 [3] of less than 6.00. The IC50 [4] was greater than 3.16 µM.
Compound `COc1cc2ncnc3c2cc1OCCCCCCOc1ccc(C(=O)O)cc1N3` [Compound 11, 4,6-ethanediylidene-19H-pyrimido[4,5-b][6,13,1]benzodioxaazacyclo-pentadecine-17-carboxylic acid, 8,9,10,11,12,13-hexahydro-20-methoxy-] has an IC50 [1] greater than 10 µM, an IC50 [2] greater than 10 µM and a pIC50 [3] of less than 6.00. It also gave an IC50 [4] greater than 3.16 µM.
`COc1cc2ncnc3c2cc1OCCCCCCOc1ccc(C(=O)N2CCCC2)cc1N3` [Compound 12, pyrrolidine, 1-[(8,9,10,11,12,13-hexahydro-20-methoxy-4,6-ethane-diylidene-19H-pyrimido[4,5-b][6,13,1]benzodioxaazacyclopentadecin-17-yl)carbonyl]-] showed an IC50 [1] greater than 10 µM, an IC50 [2] greater than 10 µM and a pIC50 [3] of less than 6.00. The IC50 [4] was greater than 3.16 µM.
For `COc1cc2ncnc3c2cc1OCCCCCCOc1ccc(C#N)cc1N3` [Compound 13, 4,6-ethanediylidene-19H-pyrimido[4,5-b][6,13,1]benzodioxaazacyclo-pentadecine-17-carbonitrile, 8,9,10,11,12,13-hexahydro-20-methoxy-], the IC50 [1] was 0.316 µM, the IC50 [2] was greater than 10 µM and the pIC50 [3] was less than 6.00. For the same compound, the IC50 [4] was greater than 3.16 µM.
With `COc1cc2ncnc3c2cc1OCCCCCCOc1ccc(C(=O)N2CCOCC2)cc1N3` [Compound 14, morpholine, 4-[(8,9,10,11,12,13-hexahydro-20-methoxy-4,6-ethane-diylidene-19H-pyrimido[4,5-b][6,13,1]benzodioxaazacyclopentadecin-17-yl)carbonyl]-] the IC50 [1] was greater than 10 µM, the IC50 [2] was greater than 10 µM and the pIC50 [3] was less than 6.00. It also gave an IC50 [4] greater than 3.16 µM.
With `Oc1cc2ncnc3c2cc1OCCCCCCOc1ccc(Br)cc1N3` [Compound 16, 4,6-ethanediylidene-19H-pyrimido[4,5-b][6,13,1]benzodioxaazacyclo-pentadecin-20-ol, 17-bromo-8,9,10,11,12,13-hexahydro-] the IC50 [1] was 2.51 µM and the pIC50 [3] was less than 6.00.
`Brc1ccc2c(c1)Nc1ncnc3cc(OCCCN4CCOCC4)c(cc13)OCCCCCCO2` [Compound 17, 4,6-ethanediylidene-19H-pyrimido[4,5-b][6,13,1]benzodioxaazacyclo-pentadecine, 17-bromo-8,9,10,11,12,13-hexahydro-20-[3-(4-morpholinyl)propoxy]-acetic acid] showed an IC50 [1] of 0.0398 µM, an IC50 [2] of 8.32 µM and a pIC50 [3] of 6.57. The IC50 [4] was 2.51 µM.
With `Brc1ccc2c(c1)Nc1ncnc3ccc(cc13)OCCCCCCO2` [Compound 18, 4,6-ethanediylidene-19H-pyrimido[4,5-b][6,13,1]benzodioxaazacyclo-pentadecine, 17-bromo-8,9,10,11,12,13-hexahydro-] the IC50 [1] was 0.0794 µM, the IC50 [2] was greater than 10 µM and the pIC50 [3] was less than 6.00.
For `COc1cc2ncnc3c2cc1OCCCCCCCc1ccc(Br)cc1N3` [Compound 21, 4,6-ethanediylidenepyrimido[4,5-b][6,1]benzoxaazacyclopentadecine, 17-bromo-8,9,10,11,12,13,14,19-octahydro-20-methoxy-], the IC50 [1] was 0.01 µM, the IC50 [2] was 0.813 µM and the pIC50 [3] was 6.80. For the same compound, the IC50 [4] was greater than 3.16 µM.
For `COc1cc2ncnc3c2cc1OCCCCCN(C)Cc1ccc(Br)cc1N3` [Compound 22, 4,6-ethanediylidenepyrimido[4,5-b][6,1,12]benzoxadiazacyclo-pentadecine, 17-bromo-8,9,10,11,12,13,14,19-octahydro-20-methoxy-13-methyl-], the IC50 [1] was 0.0158 µM, the IC50 [2] was 0.257 µM and the pIC50 [3] was 7.42. It also gave an IC50 [4] of 1.58 µM.
In the case of `COc1cc2ncnc3c2cc1OCCCCCCCCON=Cc1ccc(Cl)cc1N3` [Compound 24, 4,6-ethanediylidene-23H-pyrimido[4,5-b][6,15,1,16]benzo-dioxadiazacyclononadecine, 21-chloro-8,9,10,11,12,13,14,15-octahydro-24-methoxy-], the IC50 [1] was 0.02 µM, the IC50 [2] was 3.16 µM and the melting point was 127.2 to 132.2 °C. It also gave an IC50 [4] greater than 3.16 µM.
Compound `COc1cc2ncnc3c2cc1OCCN(CCN1CCOCC1)CCCOc1ccc(Cl)cc1N3` [Compound 33, 4,6-etheno-19H-pyrimido[5,4-k][1,8,5,13]benzodioxadiazacyclopentadecine, 17-chloro-8,9,10,11,12,13-hexahydro-20-methoxy-10-[2-(4-morpholinyl)ethyl]-] has an IC50 [1] of 0.0251 µM, an IC50 [2] of 1.74 µM and an IC50 [4] of 1.58 µM.
Work on `COc1cc2ncnc3c2cc1OCCCCCCOc1ccc(-c2ccccc2)cc1N3` [Compound 34, 4,6-ethanediylidene-19H-pyrimido[4,5-b][6,13,1]benzodioxaazacyclopentadecine, 8,9,10,11,12,13-hexahydro-20-methoxy-17-phenyl-] yielded an IC50 [1] of 0.0631 µM, an IC50 [2] greater than 10 µM and an IC50 [4] greater than 3.16 µM.
`COc1cc2ncnc3c2cc1OCCCCCCOc1ccc(-c2cccc(C#N)c2)cc1N3` [Compound 35, benzonitrile, 3-(8,9,10,11,12,13-hexahydro-20-methoxy-4,6-ethanediylidene-19H-pyrimido[4,5-b][6,13,1]benzodioxaazacyclopentadecin-17-yl)-] gave an IC50 [1] of 3.98 µM, an IC50 [2] greater than 10 µM and an IC50 [4] greater than 3.16 µM.
Compound `COc1cc2ncnc3c2cc1OCCCCCCNC(=O)c1ccc(Cl)cc1N3` [Compound 36, 4,6-ethanediylidene-8H-pyrimido[4,5-b][6,1,13]benzoxadiazacyclohexadecin-15(20H)-one, 18-chloro-9,10,11,12,13,14-hexahydro-21-methoxy-] has an IC50 [1] of 0.0158 µM, an IC50 [2] of 0.166 µM and an IC50 [4] greater than 3.16 µM.
`COc1cc2ncnc3c2cc1OCCCCCCOc1cc(Cl)ccc1N3` [Compound 37, 4,6-ethanediylidene-19H-pyrimido[4,5-b][6,13,1]benzodioxaazacyclopentadecine, 16-chloro-8,9,10,11,12,13-hexahydro-20-methoxy-] showed an IC50 [1] greater than 10 µM, an IC50 [2] greater than 10 µM and an IC50 [4] greater than 3.16 µM.
Work on `COc1cc2ncnc3c2cc1OCCCCCOCCc1ccc(Cl)cc1N3` [Compound 38, 4,6-ethanediylidene-8H,14H-pyrimido[4,5-b][6,12,1]benzodioxaazacyclohexadecine, 18-chloro-9,10,11,12,15,20-hexahydro-21-methoxy-] yielded an IC50 [1] of 0.02 µM, an IC50 [2] of 0.126 µM and an IC50 [4] of 1.26 µM.
`COc1cc2ncnc3c2cc1OCCOCCOCCc1ccc(Cl)cc1N3` [Compound 39, 4,6-ethanediylidene-14H-pyrimido[4,5-b][6,9,12,1]benzotrioxaazacyclohexadecine, 18-chloro-8,9,11,12,15,20-hexahydro-21-methoxy-] showed an IC50 [1] of 0.02 µM, an IC50 [2] of 0.2 µM and an IC50 [4] of 1.58 µM.
With `COc1cc2ncnc3c2cc1OCCCC(=O)NCCCc1ccc(Cl)cc1N3` [Compound 40, 4,6-ethanediylidene-8H-pyrimido[4,5-b][6,1,11]benzoxadiazacyclohexadecin-11(12H)-one, 18-chloro-9,10,13,14,15,20-hexahydro-21-methoxy-] the IC50 [1] was 0.0316 µM, the IC50 [2] was 0.0501 µM and the IC50 [4] was 0.631 µM.
